In patent EP1452605A1, “Method for determining antiviral activity” (Universiteit Utrecht Holding B.V., priority 2003, dated 2004):

Columns and labels:
4602 = assay: Drug susceptibility assay (cell-killing MTT assay) in MT-2 cells; conditions: Human immunodeficiency virus 1, MT2, 120 h
Protocol: (§3) The cells were maintained at 37°C, 5% CO2. One day prior to the experiments, the cells were passaged 1:1 in a concentration of 1 × 10^6 cells/ml.
(§4) The genes that contain the drug resistance mutations are excised from the clinical isolates and cloned into the genetic background of HXB2. Thus all tested HIV-1 strains have the same genetic background. […] This strain contains an insertion of two a.a. between codons 68 and 69 of RT as well as an a.a. change at codon 67.
(§5) After 5 days of incubation a cellular viability assay was performed as described above. In this case, the amount of formazan reflects the number of cells protected by the drug against killing by the virus and is used as a read out for drug susceptibility.

184V = assay: as above; conditions: Human immunodeficiency virus 1, MT2, 120 h
Protocol: as §3, §4, §5

HIV-1Ba-L = assay: HIV-1 infection of PBMC, p24-core antigen ELISA; type: cell-based
Protocol: To correct for the input virus, an extra control consisting of medium containing the same amount of input virus as added to the cells was included in the experiment. The amount of p24 in this control was subsequently subtracted from the p24 values of the samples in order to obtain the exact amount of p24 produced by the cells. p24-core antigen quantification by ELISA After 2 or 7 days incubation, samples of the supernatants were collected, inactivated by addition of Empigen (Calbiochem, La Jolla, CA, USA) and by heat inactivation at 56°C for 30 min. p24-core antigen concentration was determined by an enzyme linked immunoabsorbent assay (ELISA) (AMPAK™, DAKO, Cambridgeshire, UK) as described previously ^18,19. The optical density values were converted into p24 concentration (ng/ml) with the use of a calibration curve made by serial dilutions of recombinant p24 protein (NIBSC, UK) that was submitted to the same treatment as the samples.
(§1) To correct for the input virus, an extra control consisting of medium containing the same amount of input virus as added to the cells was included in the experiment. The amount of p24 in this control was subsequently subtracted from the p24 values of the samples in order to obtain the exact amount of p24 produced by the cells.
(§2) After 7 days incubation, samples of the supernatants were collected, inactivated by addition of Empigen (Calbiochem, La Jolla, CA, USA) and by heat inactivation at 56°C for 30 min. p24-core antigen concentration was determined by an ELISA (AMPAK™, DAKO, Cambridgeshire, UK) as described previously ^39,40. The optical density values were converted into p24 concentration (ng/ml) with the use of a calibration curve made by serial dilutions of recombinant p24 protein (NIBSC, UK) that was submitted to the same treatment as the samples.
as §1
as §2, with “enzyme linked immunoabsorbent assay (ELISA)” for “ELISA”, “15,16.” for “^39,40.”

41+215Y = assay: Drug susceptibility assay (cell-killing MTT assay) in MT-2 cells; conditions: AZT-resistant strain 41+215Y, 5 days
Protocol: as §3, §4, §5

HEp-2 cells = type: cell-based, Human
Protocol: HEp-2 cells were seeded in 96-wells plates in the presence of APHS for 4, 5 and 6 days. Concentrations of HEp-2 cells were determined by microscopic observation in order to have a confluent monolayer at the day of measurement. Afterwards a cellular viability assay was performed on these cells.

CrFK cells = assay: Cellular viability assay (MTT) of CrFK cells; type: cell-based, feline
[1] = concentrations of APHS up to 100 mg/kg; cited from earlier work
[2] = tested on: chronically HIV-1-infected U1 cell line; assay: Infection model with the chronically HIV-1-infected monocytic cell line U1, p24 ELISA; type: cell-based; conditions: PMA (100 ng/ml) stimulated, APHS 3, 10 and 30 µM, 2 days
Protocol: U1 cells (AIDS Reagents, Rockville, […]) were incubated with 100 ng/ml phorbol myristate acetate (PMA; Sigma) or with medium (negative control) for 30 min. Afterwards the cells were washed and seeded in a concentration of 1 × 10^6 cells/ml in RPMI 1640 medium containing 10% FCS and 10 µg/ml gentamycin either with increasing concentrations of APHS or with 30 mM N-acetyl-L-cysteine (NAC; Sigma), which served as a positive control. After 2 days of incubation, samples of the supernatant were collected, inactivated by addition of Empigen and by 30 min incubation at 56°C. The concentration of p24 was determined by ELISA (AMPAK™) as described above.

HIV-1 RT = HIV-1 RT (Human immunodeficiency virus type 1 group M subtype B, UniProt P04585); assay: Cell-free RT assay (primer extension); type: biochemical
Protocol: The HIV-1 RNA template (positions +1 to +368, with +1 being the capped G residue) was synthesized in vitro with T7 RNA polymerase as described previously ^27. In the reverse transcription assay, 10 ng of the RNA template was incubated with 1.5 µg calf liver tRNA ([…] total tRNA, of which approximately 1.2 pmol tRNA^lys3, Boehringer) or 20 ng of a DNA primer complementary to the primer binding site (PBS) (positions +182 to +202) in 12 µl annealing buffer (83 mM Tris-HCl pH 7.5, 125 mM KCl) at 85 °C for 2 min and 65 °C for 10 min, followed by cooling to room temperature over a 1h period. Reverse transcription was initiated by the addition of 6 µl RT buffer (9 mM MgCl2, 30 mM DTT, 150 µg/ml actinomycine D, 30 µM dATP, dGTP and dTTP and 1.5 µM dCTP), 0.5 µl [α-^32P]dCTP and 0.5 U HIV-1 RT (MRC) in the presence or absence of APHS (10, 30, 300 and 1000 µM) or 10% ethanol. The reaction was incubated for 30 min at 37 °C. The cDNA product was precipitated in 0.3 M sodiumacetate, pH 5.2 and 80% ethanol at-20°C, dissolved in formamide loading buffer and analyzed on a denaturing 6% polyacrylamide-urea sequencing gel.

Mouse L cells = assay: Cytotoxicity in mouse L cells by microscopic observation
Protocol: After 24h, the cytopatic effect (CPE) of the virus and the cytotoxicity of the compounds were scored by microscopic observation.

HFF and BHK cells = assay: Cellular viability assay (MTT) of HFF overlayed with BHK cells; type: cell-based, Human
[3] = as above; type: cell-based, Human; conditions: hff and bhk cells; read-out: TC50 (the source's name)

Protocol for MT2 cells: After 5 days of incubation a cellular viability assay was performed as described above.

For `CCCCC#CCSc1ccccc1OC(C)=O` [APHS, o-(acetoxyphenyl)hept-2-ynyl sulfide], the “toxicity for MT2 cells” value (MT2 cells) was “did not show any significant toxicity”, the IC50 4602 was 5 µM and the IC50 (184V) was 5 µM. The IC50 (HIV-1Ba-L; Human immunodeficiency virus 1, 168 h, PBMC infected with HIV-1Ba-L, p24 antigen after 7 days, read-out: IC50) was 6 µM, the inhibition at 30 µM (HIV-1Ba-L; Human immunodeficiency virus 1, 30 µM APHS, PBMC, read-out: inhibit HIV-1Ba-L replication) was 80% and the IC50 (41+215Y) was 2.1 ± 1 µM. The IC50 (41+215Y; Human immunodeficiency virus 1, MT2, 120 h) was 2 µM, the “cellular viability significantly decreased at concentrations above” value (HEp-2 cells) was “above 10 µM” and the “cytotoxicity for HEp-2 cells” value (HEp-2 cells) was “not cytotoxic”. The “cytotoxicity for CrFK cells” value (CrFK cells) was “not cytotoxic”, the “toxicity in the rat air pouch model” value [1] was “no toxicity” and the “HIV-1 production (p24) by U1 cells” value [2] was “not capable of inhibiting HIV-1 production”. The “RT activity in the primer extension assay” value (HIV-1 RT) was “no inhibition of RT activity”, the “amount of reverse transcription product” value (HIV-1 RT; 1000 µM APHS, effect probably due to the ethanol in the sample) was “decreased the amount of reverse transcription product” and the “cDNA formation” value (HIV-1 RT; APHS 10 to 300 µM) was “did not affect cDNA formation”. For the same compound, the “cytotoxicity by microscopic observation” value (Mouse L cells) was “not cytotoxic”, the “cytotoxicity for HFF and BHK cells” value (HFF and BHK cells) was “not cytotoxic” and the CC50 [3] was 374 µM.
